This is an account of results in patent US20100324017A1, “ACYLGUANIDINE DERIVATIVE” (priority 2007, published 2010).

Each structure is given as a SMILES string.

Assay [1] has as its system MK-801-induced spontaneous alternation behavior disorder. The assay can be described thus: MK-801-induced spontaneous alternation behavior disorder in mice (Y-maze). Particulars: mouse, oral, dose 0.003 mg/kg; MK-801 0.15 mg/kg i.p. It counts as in vivo. The procedure:
(§1) An Improvement Effect for Scopolamine-Induced or MK-801-Induced Spontaneous Alternation Behavior in Mice
(§2) An improvement effect of the compound (I) for cognitive impairment was evaluated by the above-described well-known test method as a model of a short-term learning disorder.
(§3) Species: Male ddY mice/number of animals (number of animals per group): 6 to 10 animals per group
(§4) A mouse was introduced into the laboratory 1 hour before starting the test. The mouse was placed at one end of an arm in a Y-maze having equal lengths of arms in three directions, and was able freely explored for 8 minutes with the number of the entries into the arms were counted. Furthermore, a spontaneous alternation behavior was defined as consecutive entries into each of the three arms, and an alternation rate was defined as the percentage of the number of time of this behavior relative to the total number of the entries, and calculated by the following equation.
Alternation rate (%)=(number of spontaneous alternation behaviors/total number of entries−2)×100. […]
The alternation rate (%) is expressed as an average value in each group (mean±SE). […] By carrying out the Dunnett evaluation for the group administered with the compound to be tested relative to the control group, the presence or absence of the learning disorder action of the compound to be tested was determined. […]

The test system of a further assay is MAP-induced overactivity. Put plainly: MAP (methane phetamine)-induced overactivity in mice, kinetic momentum by infrared sensor. The conditions noted are these: mouse, oral, MAP 1 mg/kg i.p., total 60 minutes, P<0.05. It counts as in vivo. The procedure: (§5) Evaluation of Various Drugs Relative to a Drug for Increasing the Kinetic Momentum of Mice (Methane Phetamine, MK-801) (Method for Measuring a Kinetic Momentum by Discharge of an Infrared Ray)
(§6) The effect of improving the positive symptoms and the negative symptoms of schizophrenia by the compound (I) was evaluated by measuring the kinetic momentum that had been […] with administration of the compound in a model causing the symptoms by methane phetamine (which is hereinafter simply referred to as MAP) and MK-801.
(§7) Species: Male ICR mouse/number of animals (number of animals per group): 8 to 12 animals per group
(§8) The animal was left in a laboratory for 1 hour or longer to be acclimated to the environment, and the animal was taken from the feeding cage, orally administered with a compound to be tested, and then returned to the feeding cage. After 30 minutes, it was put into a cage for measurement, and the kinetic momentum of just the compound to be tested was measured. Further, after 30 minutes, the animal was taken out, and intraperitoneally administered with a drug for increasing kinetic momentum (MAP; 1 mg/kg or MK-801; 0.3 mg/kg, all dissolved in physiological saline), and its kinetic momentum was measured for a certain time (60 minutes) using a device for measuring the kinetic momentum by means of an infrared ray sensor (CompACT AMS, Muromachi Kikai Co., Ltd.). Also, the test was carried out under non-fasting.
(§9) The 60 minutes of measurements was classified into three groups: a first half 30 minutes, a second half 30 minutes, and a total 60 minutes. For a normal mouse (a mouse administered with physiological saline) and a mouse administered with the drug for increasing kinetic momentum, a Student's T test was used for evaluation in each interval. For the group administered with the compound to be tested, a solvent (vehicle) group and a Dunnett's T test were carried out and evaluated. For the evaluation, in case where there was a significant (P<0.05) difference for the total 60 minutes, it was considered to be effective.

The subject of assay [2] is MK-801-induced overactivity. Put plainly: MK-801-induced overactivity in mice, kinetic momentum by infrared sensor. It counts as in vivo. The conditions noted are these: mouse, oral, dose 0.01 mg/kg; MK-801 0.3 mg/kg i.p.; total 60 minutes, P<0.05. The procedure: as §5, §6, §7, §8, §9
Assay [3] relates to water maze learning disorders in old rats. The assay can be described thus: Water maze learning disorders in old rats. Format: in vivo, rat. The procedure: Evaluation of a Drug for Water Maze Learning Disorders in Old Rats
The improvement effect of the compound (I) for dementia was evaluated by a known water maze learning disorder model used as a pathophysiology model.
Specifically, it was evaluated in accordance with the method as described in “J Pharmacol Exp Ther, 1996; 279: 1157-73, Yamazaki M. et al.”.

Assay [4] relates to scopolamine-induced spontaneous alternation behavior disorder. Put plainly: Scopolamine-induced spontaneous alternation behavior disorder in mice (Y-maze). It counts as in vivo. The conditions noted are these: mouse, oral, dose 0.003 mg/kg; scopolamine 0.5 mg/kg i.p. The procedure: as §1, §2, §3, §4
Alternation rate (%)=(number of spontaneous alternation behaviors/total number of entries−2)×100.
The compound to be tested was orally administered 50 minutes before the initiation of the test, and 30 minutes later, 0.5 mg/kg of scopolamine or 0.15 mg/kg of MK-801 (in the normal group, physiological saline) was intraperitoneally administered. Furthermore, for the normal group (the group administered with physiological saline) and the control group (the group administered with 0.5 mg/kg scopolamine or 0.15 mg/kg MK-801), a solvent (vehicle) was orally administered when the compound to be tested was administered. For the normal group, physiological saline was intraperitoneally administered when scopolamine was administered.
The alternation rate (%) is expressed as an average value in each group (mean±SE). In regard to the alternation rate (%), in the case where a significant difference between the normal group and the control group (Student's T test) was found, it was considered that there was an establishment of learning disorder by the administration of scopolamine or MK-801. By carrying out the Dunnett evaluation for the group administered with the compound to be tested relative to the control group, the presence or absence of the learning disorder action of the compound to be tested was determined. In each evaluation, it was considered that there was a tendency at p<0.10, and there was a significant difference at p<0.05.

As for `NC(N)=NC(=O)c1ccc2c3ccccc3n(C3CCOCC3)c2c1` [Example 25], the “improvement of MK-801-induced spontaneous alternation behavior disorder” value in assay [1] is recorded as “significantly improved”. The “inhibition of MAP-induced overactivity” value in the assay on MAP-induced overactivity (dose 0.01 mg/kg) is “significantly inhibited”. The “inhibition of MK-801-induced overactivity” value in assay [2] is reported as “significantly inhibited”. Besides, the “improvement of water maze learning disorders in old rats” value in assay [3] (dose 0.01 mg/kg) and in assay [3] (dose 0.03 mg/kg) was “significantly improved” in each case. Also, the “inhibition of scopolamine-induced spontaneous alternation behavior disorder” value in assay [4] is reported as “significantly inhibited”.
Take `CC(C)n1c2cc(C(=O)N=C(N)N)ccc2c2c(CO)cccc21` [Example 65]: in the assay with MAP-induced overactivity (dose 0.003 mg/kg), the “inhibition of MAP-induced overactivity” value is given as “significantly inhibited”. The “inhibition of MK-801-induced overactivity” value in assay [2] is on record as “significantly inhibited”. Besides, the “inhibition of scopolamine-induced spontaneous alternation behavior disorder” value in assay [4] was “significantly inhibited”.
